The record followed here is publication PMC9016807, “Metabolic, Pharmacokinetic, and Activity Profile of the Liver Stage Antimalarial (RC-12)” (ACS Omega, 2022).

Data set [1] can be described thus: Metabolism in human liver microsomes. In kind it is in vitro ADME. Conditions: 0.4 mg/mL protein; for microsomal CLint at 1 μM: human, liver microsomes, read-out: CLint of authentic metabolite incubated; for average individual metabolite formed over a 60 min incubation of 1: substrate 1 at 1 μM, percentage of initial substrate concentration, ND = not detected. The method, then: (§1) Following the protocols described by Charman et al.,[28]1 was incubated at 37 °C with human, rat, and rhesus monkey liver microsomes. For the determination of intrinsic clearance, the substrate concentration was 1 μM and the protein concentration was 0.4 mg/mL; for qualitative metabolite identification studies, the substrate and protein concentrations were 10 μM and 1 mg/mL, respectively. The reaction was initiated by the addition of an NADPH-regenerating buffer system, and the samples were incubated for up to 60 (for Clint determination) or 180 min (for additional metabolite identification). Samples without the test compound and without NADPH were also incubated and used as controls. The reaction was quenched by protein precipitation with the addition of an equal volume of ice-cold acetonitrile solution (containing diazepam as an internal standard), followed by vortexing and centrifugation for 3 min at 10000 rpm. The supernatant was removed and analyzed by LC/MS. LC/MS analysis was conducted using a Waters Micromass Xevo G2 QTOF MS coupled to a Waters Acquity UPLC. For metabolite identification, a Supelco Ascentis Express Amide column (50 × 2.1 mm, 2.7 μm) was used with an acetonitrile–water gradient (containing 0.05% formic acid), a flow rate of 0.4 mL/min, a gradient cycle time of 6 min, and an injection volume of 5 μL. MS analysis was conducted using positive mode electrospray ionization under MSE acquisition mode, which allows simultaneous acquisition of MS spectra at low and high collision energies. The identity of putative metabolites was confirmed by the accurate mass and a comparison of the retention times and MS/MS fragmentation patterns with authentic metabolites where available. For metabolite quantitation, the method described below for the analysis of plasma samples was used.
For orientation: Liver microsomes are vesicles of endoplasmic reticulum, rich in cytochrome P450 enzymes.

The nature of data set [2]: Metabolism in rhesus monkey liver microsomes. Format: in vitro ADME. Particulars: 0.4 mg/mL protein; for microsomal CLint at 1 μM: rhesus monkey, liver microsomes, read-out: CLint of authentic metabolite incubated; for average individual metabolite formed over a 60 min incubation of 1: substrate 1 at 1 μM, percentage of initial substrate concentration, ND = not detected. The method, then: as §1

A short description of data set [3]: Metabolism in rat liver microsomes. In kind it is in vitro ADME. Particulars: 0.4 mg/mL protein; for CLint of authentic metabolite incubated / microsomal CLint at 1 μM: 1 μM substrate, NADPH, 37 °C, 60 min, single incubation; for microsomal CLint at 1 μM: rat, liver microsomes, read-out: CLint of authentic metabolite incubated; for average individual metabolite formed over a 60 min incubation of 1: substrate 1 at 1 μM, percentage of initial substrate concentration, ND = not detected. The method, then:
as §1

Data set [4] is described as follows: Pharmacokinetics in rats after IV and PO administration. Format: in vivo, male Sprague–Dawley rats. Particulars: for metabolite in urine, percentage of the 1 dose: after IV administration of 1; for dose excreted: male, Sprague-Dawley, rat, urine, after oral administration of 1 at 27 mg/kg, read-out: recovery of metabolite in urine, percentage of the 1 dose. The method, then: Animal studies were conducted using established procedures in accordance with the Australian Code of Practice for the Care and Use of Animals for Scientific Purposes, and the study protocols were reviewed and approved by the Monash Institute of Pharmaceutical Sciences Animal Ethics Committee. The study was conducted in overnight-fasted male Sprague–Dawley rats weighing 266–292 g. Rats had access to water ad libitum throughout the pre- and postdose sampling period, and access to food was reinstated 4 h postdose. Compound 1 was administered intravenously as a 10 min constant rate infusion via an indwelling jugular vein cannula (1 mL per rat, n = 5 rats) and orally by gavage (10 mL/kg per rat, n = 2–3 rats), and samples of arterial blood and total urine were collected up to 24 h postdose. Arterial blood was collected directly into borosilicate vials (at 4 °C) containing heparin. Blood samples were centrifuged, and the supernatant plasma was removed and stored frozen (−80 °C) until analysis by LC-MS. Plasma samples and calibration standards (prepared in blank rat plasma) were processed by protein precipitation with a 2-fold volume of acetonitrile. LC-MS analysis was conducted using a Waters Micromass Quattro Premier triple-quadrupole mass spectrometer coupled to a Waters Acquity UPLC with a Phenomenex C18 Kinetex column (50 × 2.1 mm, 2.7 μm). Elution was achieved using a methanol–water gradient (containing 8.2 mM formic acid and 1.25 mM ammonium formate) with a flow rate of 0.6 mL/min, a gradient cycle time of 6 min, and an injection volume of 2 μL. MS detection was conducted using positive electrospray ionization with multiple reaction monitoring. Transitions (m/z), cone voltages (V), and CID voltages (V) were as follows: 1, 430.26 > 99.93, 40, 20; 2, 416.27 > 99.80, 30, 20; 3, 402.22 > 99.93, 35, 20; 4, 388.23 > 99.86, 35, 20; 5: 374.25 > 72.01, 35, 25; diazepam (285.25 > […], 40, 25) (used as an internal standard). The quantitation range in plasma was typically 1–10000 ng/mL, and the accuracy and precision were within ±10% and <10%, respectively, for each analyte. Urine samples were analyzed using either a 20- or 200-fold dilution with 50% acetonitrile and assayed against calibration standards prepared in the same solvent.

Data set [5] concerns P. vivax liver-stage parasites. Description: P. vivax liver-stage in vitro assay, prophylactic mode. Format: cell-based, Plasmodium vivax. The method, then:
(§2) Compound 1 and its metabolites were tested in both prophylactic and radical cure modes for activity against P. vivax liver-stage parasites.[16],[17] In the prophylactic assay, compounds are added the day after sporozoite invasion into hepatocytes in order to characterize the compound activity against established liver forms with a parasitophorous vacuole membrane (as opposed to activity on preinvasion sporozoites) and prior to complete maturation of hypnozoites into drug-insensitive dormant forms, which appear at about 5 days postinvasion.[18] In the radical cure assay, compounds are added at day 5 postinfection to characterize activity against late-stage schizonts and mature PI4K inhibitor-insensitive hypnozoites.[19] In these experiments, the threshold for activity is 75% inhibition. […] Similarly, as previously described,[20] 10 μM concentrations of 1 and its metabolites were also tested for activity against P. cynomolgi schizont (large forms) and hypnozoite (small forms) liver-stage parasites cultured in rhesus monkey hepatocytes. In these experiments, the threshold for activity is 50% inhibition.
(§3) Compounds were prepared as 20 mM stock solutions in DMSO and tested in an eight-point semilog (1/3) dilution series from 20 μM in 384-well assay plates in both prophylactic and radical cure mode against P. vivax liver-stage parasites as previously described.[16] Following ethical approval from the Institutional Ethics Committee of the Thai Ministry of Public Health, the Ethical Review Committee of Faculty of Tropical Medicine, Mahidol University (TMEC 11-008 and 14-016), the Oxford Tropical Medicine Ethical Committee, Oxford University, England (OxTREC 17-11 and 40–14), and the Cambodian National Ethics Committee for Health Research (101NECHR), isolates of P. vivax infected blood were collected from patent volunteers in Tak province, Thailandm and Mondulkiri province, Cambodia. Samples were collected by venipuncture into heparin tubes prior to replacement of patient serum with nonimmune AB human serum and feeding to laboratory-reared Anopheles dirus cracens or An. dirus A mosquitoes via water-jacket artificial membrane feeders or the Hemotek insect feeding system (Hemotek, Blackburn, UK) set to maintain the bloodmeal temperature at 37 °C. […] Cryopreserved human hepatocytes (BioIVT, Baltimore, Maryland, USA) were thawed into InVitroGro CP Medium (BioIVT), quantified for viability by trypan blue dye exclusion, diluted to 800–1000 live cells per microliter, and 18000 live cells were plated into each well of a collagen-coated 384-well plate (Greiner, Monroe, NC, USA) by a 16-channel pipet (Finnpipette, Thermo Fisher Scientific, Waltham, MA). […]

Data set [6] has as its system P. vivax liver-stage parasites. Description: P. vivax liver-stage in vitro assay, radical cure mode. Format: cell-based, Plasmodium vivax. Particulars: Plasmodium vivax. The method, then:
as §2, §3

Data set [7] deals with P. cynomolgi schizont (large forms) and hypnozoite (small forms) liver-stage parasites. Description: P. cynomolgi liver-stage in vitro assay in rhesus monkey hepatocytes. Format: cell-based. Particulars: Plasmodium cynomolgi, Hepatocyte, in Macaca mulatta. The method, then:
as §2

[8] abbreviates: 1 μM substrate, NADPH, 37 °C, 60 min, single incubation.
[9] abbreviates: control drug, read-out: IC50 (hypnozoites).
The mark [10] stands for this setting: control drug, read-out: IC50 (schizonts).

“Also recorded” adds a separate entry of the source. Like-named read-outs stand apart in the source and are kept apart here.

As for `CCN(CC)CCN(CCN(CC)CC)c1cc(OC)c(O)cc1Br` [Compound 2, N,N-Bis[2-(diethylamino)ethyl]-2-bromo-4-hydroxy-5-methoxyaniline 1,5-Naphthalenedisulfonate], the microsomal CLint at 1 μM in data set [1] (setting [8]) is under 3 µL/min/mg; in data set [2] (setting [8]), 8 µL/min/mg; in data set [3] it was 264 µL/min/mg. In addition, the figures for the “average individual metabolite formed over a 60 min incubation of 1” value in data set [1] and in data set [2] were 0.2% and 15%, respectively. The “CLint of authentic metabolite incubated” value in data set [3] is “highly unstable”.
Turning to `CCNCCN(CCN(CC)CC)c1cc(OC)c(OC)cc1Br` [Compound 3, N-[2-(Ethylamino)ethyl]-N-[2-(diethylamino)ethyl]-2-bromo-4,5-dimethoxyaniline 1,5-Naphthalenedisulfonate], the microsomal CLint at 1 μM in data set [1] (setting [8]) was under 3 µL/min/mg; in data set [2] (setting [8]), 19 µL/min/mg; in data set [3], 24 µL/min/mg. In addition, the “average individual metabolite formed over a 60 min incubation of 1” value in data set [1] is 1.6%; in data set [2] it was 20%; in data set [3], 64%. Further, the “metabolite in urine, percentage of the 1 dose” value in data set [4] is 1.7%. The dose excreted in data set [4] turned out to be 3.3%.
With `CCNCCN(CCN(CC)CC)c1cc(OC)c(O)cc1Br` [Compound 4, N-[2-(Ethylamino)ethyl]-N-[2-(diethylamino)ethyl]-2-bromo-4-hydroxy-5-methoxyaniline 1,5-Naphthalenedisulfonate], the microsomal CLint at 1 μM in data set [1] (setting [8]) was under 3 µL/min/mg; in data set [2] (setting [8]), 12 µL/min/mg; in data set [3], 45 µL/min/mg. Moreover, the entries for the “average individual metabolite formed over a 60 min incubation of 1” value in data set [2] and in data set [3] were 2.4% and 6.4%, respectively. The IC50 (commonly the concentration needed to halve the response being measured) in data set [5] (Plasmodium vivax, n = 3, read-out: IC50 against schizonts) amounted to 2.63 µM; in data set [6] (n = 2, read-out: IC50 against schizonts), 15.5 µM. The inhibition (as a rule, the drop in the measured response relative to a control, in per cent) at 10 µM in data set [7] (10 μM, first run, read-out: inhibition of growth of the schizont (large forms)) came out at 70%.
In the case of `CCNCCN(CCNCC)c1cc(OC)c(OC)cc1Br` [Compound 5, N,N-Bis[2-(ethylamino)ethyl]-2-bromo-4,5-dimethoxyaniline 1,5-naphthalenedisulfonate], the figures for the microsomal CLint at 1 μM in data set [1] (setting [8]), in data set [2] (setting [8]) and in data set [3] were 6 µL/min/mg, 7.3 µL/min/mg and 4.4 µL/min/mg, respectively. Besides, the “average individual metabolite formed over a 60 min incubation of 1” value in data set [2] was 1.4%; in data set [3] it was 25%. For the same molecule, the “metabolite in urine, percentage of the 1 dose” value in data set [4] is given as 1.2%. The dose excreted in data set [4] was 3%.
As to `Br.Br.Br.CCN(CC)CCN(CCN(CC)CC)c1cc(O)c(OC)cc1Br` [Compound 6, N,N-Bis[2-(diethylamino)ethyl]-2-bromo-5-hydroxy-4-methoxyaniline trihydrobromide], the “CLint of authentic metabolite incubated” value in data set [1] (setting [8]), in data set [2] (setting [8]) and in data set [3] was “very unstable; also recorded: highly unstable in all species” in each case.
In the case of `CNC(=O)c1ccc(-c2cnc3cnc(C(=O)N(C)c4ccc(Cl)cc4)cn23)cc1` [KDU691, reference compound], the IC50 in data set [5] (setting [9]) was determined as 0.0535 µM; in data set [5] (setting [10]), 0.0114 µM.
On to `CC[C@@]1([C@@H]2O[C@@H]([C@H]3O[C@@](O)(CO)[C@H](C)C[C@@H]3C)C[C@@H]2C)CC[C@H]([C@]2(C)CC[C@]3(C[C@H](O)[C@@H](C)[C@@H]([C@@H](C)[C@@H](OC)[C@H](C)C(=O)O)O3)O2)O1` [monensin, reference compound], for which the IC50 in data set [6] (setting [9]) is 0.102 µM; in data set [6] (setting [10]) it was 0.0124 µM.
Take `COc1cc(NC(C)CCCN)c2ncccc2c1` (centres unmarked) [primaquine]: the IC50 in data set [7] (read-out: IC50 against the hypnozoite (small forms)) was 2.7 µM; in data set [7] (read-out: IC50 against the schizont (large forms)), 1.1 µM.
